We go through 2 compounds from PMC9506414, “Novel 2,6,9-Trisubstituted Purines as Potent CDK Inhibitors Alleviating Trastuzumab-Resistance of HER2-Positive Breast Cancers” (Pharmaceuticals, 2022).

In one experiment the target is T1, SRMS (Homo sapiens, UniProt Q9H3Y6).
T1 construct: purchased Reaction Biology Corp
Kind of experiment: Kinome-wide inhibition profiling. Format: biochemical. Here is the method: (§1) In vitro CDK12/cyclinK assays for all compounds and in vitro kinome-wide inhibition profiling of 30d at 10 μM were performed by a CRO company (Reaction Biology Corp., San Diego, CA, USA).

Another experiment has as its target T2, PAK4 (Homo sapiens, UniProt O96013).
T2 construct: purchased Reaction Biology Corp
As to the kind of experiment: Kinome-wide inhibition profiling. Format: biochemical. The procedure: as §1

The next experiment has as its target T3, MELK (Homo sapiens, UniProt Q14680).
T3 construct: purchased Reaction Biology Corp
As to the kind of experiment: Kinome-wide inhibition profiling. The class given is biochemical. Here is the method:
as §1

The next experiment has as its target T4, JNK1 (Homo sapiens, UniProt P45983).
T4 construct: purchased Reaction Biology Corp
As to the kind of experiment: Kinome-wide inhibition profiling. The class given is biochemical. The procedure: as §1

The next experiment has as its target T5, RIPK2 (Homo sapiens, UniProt O43353).
T5 construct: purchased Reaction Biology Corp
Kind of experiment: Kinome-wide inhibition profiling. Format: biochemical. The procedure: as §1

Experiment [1] addresses T6, RPS6KA5(Kin.Dom.1-N-term) (Homo sapiens, UniProt O75582).
T6 construct: RPS6KA5(Kin.Dom.1-N-term); purchased Reaction Biology Corp
As to the kind of experiment: Kinome-wide inhibition profiling. Format: biochemical. The procedure: as §1

For a further experiment, the target named is T7, MNK2 (Homo sapiens, UniProt Q9HBH9).
T7 construct: purchased Reaction Biology Corp
T7 sequence (Q9HBH9 whole entry): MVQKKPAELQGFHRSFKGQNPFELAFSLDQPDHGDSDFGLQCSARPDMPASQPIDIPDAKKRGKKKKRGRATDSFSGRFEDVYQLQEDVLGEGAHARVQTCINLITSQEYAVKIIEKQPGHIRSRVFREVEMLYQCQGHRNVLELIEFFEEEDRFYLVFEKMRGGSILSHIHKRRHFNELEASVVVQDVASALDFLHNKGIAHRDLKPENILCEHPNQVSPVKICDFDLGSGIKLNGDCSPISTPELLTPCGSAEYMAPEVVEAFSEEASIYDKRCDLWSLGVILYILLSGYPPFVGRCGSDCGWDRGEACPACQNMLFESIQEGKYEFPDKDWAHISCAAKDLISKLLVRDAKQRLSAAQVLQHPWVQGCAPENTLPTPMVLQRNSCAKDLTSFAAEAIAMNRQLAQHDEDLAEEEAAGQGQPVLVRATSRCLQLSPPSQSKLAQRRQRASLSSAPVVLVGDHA
As to the kind of experiment: Kinome-wide inhibition profiling. The class given is biochemical. The procedure:
as §1

The target in a further experiment is T8, JAK1 (Homo sapiens, UniProt P23458).
T8 construct: purchased Reaction Biology Corp
As to the kind of experiment: Kinome-wide inhibition profiling. The class given is biochemical. Here is the method:
as §1

The target of another experiment is T9, MARK3 (Homo sapiens, UniProt P27448).
T9 construct: purchased Reaction Biology Corp
Kind of experiment: Kinome-wide inhibition profiling. Format: biochemical. The procedure: as §1

The target in a further experiment is T10, EPHA6 (Homo sapiens, UniProt Q9UF33).
T10 construct: purchased Reaction Biology Corp
T10 sequence (Q9UF33 23-1036): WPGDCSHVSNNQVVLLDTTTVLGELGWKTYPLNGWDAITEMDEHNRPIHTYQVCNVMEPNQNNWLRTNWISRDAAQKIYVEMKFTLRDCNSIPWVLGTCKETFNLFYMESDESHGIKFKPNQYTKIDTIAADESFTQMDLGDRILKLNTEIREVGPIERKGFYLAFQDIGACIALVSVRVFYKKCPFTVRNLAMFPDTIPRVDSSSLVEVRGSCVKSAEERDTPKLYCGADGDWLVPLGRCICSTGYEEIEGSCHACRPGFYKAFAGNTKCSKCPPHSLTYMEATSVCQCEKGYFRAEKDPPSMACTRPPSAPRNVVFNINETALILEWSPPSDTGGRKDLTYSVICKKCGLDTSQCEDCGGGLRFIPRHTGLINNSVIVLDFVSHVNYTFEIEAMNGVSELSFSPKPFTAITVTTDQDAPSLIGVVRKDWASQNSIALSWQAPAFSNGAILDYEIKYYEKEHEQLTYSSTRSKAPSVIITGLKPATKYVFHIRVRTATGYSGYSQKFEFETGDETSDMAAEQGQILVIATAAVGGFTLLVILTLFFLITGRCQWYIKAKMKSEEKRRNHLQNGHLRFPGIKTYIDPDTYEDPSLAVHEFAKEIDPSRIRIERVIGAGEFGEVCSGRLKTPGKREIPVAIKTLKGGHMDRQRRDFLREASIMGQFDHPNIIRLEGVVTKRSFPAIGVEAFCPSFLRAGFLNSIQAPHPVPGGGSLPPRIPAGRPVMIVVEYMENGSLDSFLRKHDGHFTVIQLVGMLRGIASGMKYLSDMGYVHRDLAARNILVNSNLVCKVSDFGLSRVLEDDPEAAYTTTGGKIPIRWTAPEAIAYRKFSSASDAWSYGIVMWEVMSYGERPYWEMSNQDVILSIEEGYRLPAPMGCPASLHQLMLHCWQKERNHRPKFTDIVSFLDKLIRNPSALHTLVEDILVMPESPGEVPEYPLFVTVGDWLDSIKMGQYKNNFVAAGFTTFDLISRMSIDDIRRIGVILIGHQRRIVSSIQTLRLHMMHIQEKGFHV
As to the kind of experiment: Kinome-wide inhibition profiling. Format: biochemical. The procedure: as §1

Experiment [2] addresses T11, RPS6KA4(Kin.Dom.1-N-term) (Homo sapiens, UniProt O75676).
T11 construct: RPS6KA4(Kin.Dom.1-N-term); purchased Reaction Biology Corp
As to the kind of experiment: Kinome-wide inhibition profiling. Format: biochemical. Here is the method: as §1

The next experiment concerns the target T12, PHKg2 (Homo sapiens, UniProt P15735).
T12 construct: purchased Reaction Biology Corp
Kind of experiment: Kinome-wide inhibition profiling. The class given is biochemical. The procedure:
as §1

The target in the next experiment is T13, CAMK1d (Homo sapiens, UniProt Q8IU85).
T13 construct: purchased Reaction Biology Corp
As to the kind of experiment: Kinome-wide inhibition profiling. The class given is biochemical. Here is the method: as §1

A further experiment deals with T14, CSNK1A1 (Homo sapiens, UniProt P48729).
T14 construct: purchased Reaction Biology Corp
As to the kind of experiment: Kinome-wide inhibition profiling. The class given is biochemical. The procedure:
as §1

The target in another experiment is T15, PKN3 (Homo sapiens, UniProt Q6P5Z2).
T15 construct: purchased Reaction Biology Corp
Kind of experiment: Kinome-wide inhibition profiling. The class given is biochemical. The procedure:
as §1

Another experiment has as its target T16, SBK1 (Homo sapiens, UniProt Q52WX2).
T16 construct: purchased Reaction Biology Corp
As to the kind of experiment: Kinome-wide inhibition profiling. Format: biochemical. The procedure:
as §1

A further experiment addresses T17, MARK1 (Homo sapiens, UniProt Q9P0L2).
T17 construct: purchased Reaction Biology Corp
Kind of experiment: Kinome-wide inhibition profiling. The class given is biochemical. The procedure:
as §1

Another experiment deals with T18, CAMK1a (Homo sapiens, UniProt Q14012).
T18 construct: purchased Reaction Biology Corp
As to the kind of experiment: Kinome-wide inhibition profiling. Format: biochemical. The procedure: as §1

Another experiment concerns the target T19, PRKCH (Homo sapiens, UniProt P24723).
T19 construct: purchased Reaction Biology Corp
As to the kind of experiment: Kinome-wide inhibition profiling. Format: biochemical. Here is the method:
as §1

The next experiment concerns the target T20, RSK3 (Homo sapiens, UniProt Q15349).
T20 construct: purchased Reaction Biology Corp
Kind of experiment: Kinome-wide inhibition profiling. The class given is biochemical. Here is the method: as §1

In the next experiment the target is T21, CDK6/cyclinD1 (Homo sapiens, UniProt Q00534).
T21 construct: purchased Reaction Biology Corp
T21 sequence (Q00534 whole entry): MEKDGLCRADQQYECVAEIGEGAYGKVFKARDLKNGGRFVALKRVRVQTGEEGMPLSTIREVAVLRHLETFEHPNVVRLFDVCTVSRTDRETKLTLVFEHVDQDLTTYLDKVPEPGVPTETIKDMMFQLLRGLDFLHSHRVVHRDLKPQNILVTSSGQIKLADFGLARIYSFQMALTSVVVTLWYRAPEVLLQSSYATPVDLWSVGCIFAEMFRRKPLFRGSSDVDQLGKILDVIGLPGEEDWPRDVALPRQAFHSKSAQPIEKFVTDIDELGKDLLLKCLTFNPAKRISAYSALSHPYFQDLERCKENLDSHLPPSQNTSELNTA
T21 sequence (P24385 whole entry partner): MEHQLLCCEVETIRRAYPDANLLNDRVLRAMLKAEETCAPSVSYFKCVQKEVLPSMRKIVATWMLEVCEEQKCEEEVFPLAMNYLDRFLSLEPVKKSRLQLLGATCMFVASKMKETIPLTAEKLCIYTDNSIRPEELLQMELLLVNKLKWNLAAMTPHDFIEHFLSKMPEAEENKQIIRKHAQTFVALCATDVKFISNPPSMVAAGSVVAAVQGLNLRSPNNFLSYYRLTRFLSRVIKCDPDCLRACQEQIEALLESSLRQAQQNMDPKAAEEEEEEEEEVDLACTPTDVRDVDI
Kind of experiment: Kinome-wide inhibition profiling. Format: biochemical. The procedure:
as §1

The next experiment deals with T22, HIPK2 (Homo sapiens, UniProt Q9H2X6).
T22 construct: purchased Reaction Biology Corp
T22 sequence (Q9H2X6 whole entry): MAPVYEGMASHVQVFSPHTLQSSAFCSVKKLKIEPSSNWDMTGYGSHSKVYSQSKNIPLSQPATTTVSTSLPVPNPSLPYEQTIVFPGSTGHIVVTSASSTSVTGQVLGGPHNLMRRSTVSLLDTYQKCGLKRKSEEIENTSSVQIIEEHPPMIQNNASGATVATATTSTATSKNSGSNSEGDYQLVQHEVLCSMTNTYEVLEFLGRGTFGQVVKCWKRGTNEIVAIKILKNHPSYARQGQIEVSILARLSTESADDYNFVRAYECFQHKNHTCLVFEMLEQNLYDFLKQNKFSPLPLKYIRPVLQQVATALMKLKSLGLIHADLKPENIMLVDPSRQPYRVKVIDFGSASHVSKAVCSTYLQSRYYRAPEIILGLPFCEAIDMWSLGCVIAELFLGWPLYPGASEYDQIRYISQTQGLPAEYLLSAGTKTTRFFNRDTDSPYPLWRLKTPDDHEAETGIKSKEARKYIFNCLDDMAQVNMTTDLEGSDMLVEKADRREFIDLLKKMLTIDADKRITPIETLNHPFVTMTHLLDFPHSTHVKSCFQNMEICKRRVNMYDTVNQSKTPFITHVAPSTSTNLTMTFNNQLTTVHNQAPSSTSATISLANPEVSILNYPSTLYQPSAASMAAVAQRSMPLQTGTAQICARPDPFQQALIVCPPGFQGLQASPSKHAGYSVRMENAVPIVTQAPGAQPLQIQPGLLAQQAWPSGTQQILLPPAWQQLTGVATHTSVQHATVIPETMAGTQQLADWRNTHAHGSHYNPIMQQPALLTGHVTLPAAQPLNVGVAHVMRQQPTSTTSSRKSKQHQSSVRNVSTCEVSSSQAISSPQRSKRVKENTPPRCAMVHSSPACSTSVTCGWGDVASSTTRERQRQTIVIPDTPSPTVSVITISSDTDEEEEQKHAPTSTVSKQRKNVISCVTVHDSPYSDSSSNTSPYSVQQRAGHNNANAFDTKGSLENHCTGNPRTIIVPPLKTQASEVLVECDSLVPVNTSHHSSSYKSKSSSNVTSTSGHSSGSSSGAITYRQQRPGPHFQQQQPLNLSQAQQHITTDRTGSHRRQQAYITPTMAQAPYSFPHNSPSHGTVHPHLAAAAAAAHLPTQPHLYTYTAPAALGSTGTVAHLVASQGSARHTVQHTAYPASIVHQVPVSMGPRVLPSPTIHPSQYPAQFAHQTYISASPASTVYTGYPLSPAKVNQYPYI
Kind of experiment: Kinome-wide inhibition profiling. Format: biochemical. The procedure: as §1

In another experiment the target is T23, MAP3K8 (Homo sapiens, UniProt P41279).
T23 construct: purchased Reaction Biology Corp
As to the kind of experiment: Kinome-wide inhibition profiling. The class given is biochemical. The procedure:
as §1

The next experiment has as its target T24, EPHA4 (Homo sapiens, UniProt P54764).
T24 construct: purchased Reaction Biology Corp
As to the kind of experiment: Kinome-wide inhibition profiling. The class given is biochemical. The procedure:
as §1

The target in another experiment is T25, ICK (Homo sapiens, UniProt Q9UPZ9).
T25 construct: purchased Reaction Biology Corp
T25 sequence (Q9UPZ9 whole entry): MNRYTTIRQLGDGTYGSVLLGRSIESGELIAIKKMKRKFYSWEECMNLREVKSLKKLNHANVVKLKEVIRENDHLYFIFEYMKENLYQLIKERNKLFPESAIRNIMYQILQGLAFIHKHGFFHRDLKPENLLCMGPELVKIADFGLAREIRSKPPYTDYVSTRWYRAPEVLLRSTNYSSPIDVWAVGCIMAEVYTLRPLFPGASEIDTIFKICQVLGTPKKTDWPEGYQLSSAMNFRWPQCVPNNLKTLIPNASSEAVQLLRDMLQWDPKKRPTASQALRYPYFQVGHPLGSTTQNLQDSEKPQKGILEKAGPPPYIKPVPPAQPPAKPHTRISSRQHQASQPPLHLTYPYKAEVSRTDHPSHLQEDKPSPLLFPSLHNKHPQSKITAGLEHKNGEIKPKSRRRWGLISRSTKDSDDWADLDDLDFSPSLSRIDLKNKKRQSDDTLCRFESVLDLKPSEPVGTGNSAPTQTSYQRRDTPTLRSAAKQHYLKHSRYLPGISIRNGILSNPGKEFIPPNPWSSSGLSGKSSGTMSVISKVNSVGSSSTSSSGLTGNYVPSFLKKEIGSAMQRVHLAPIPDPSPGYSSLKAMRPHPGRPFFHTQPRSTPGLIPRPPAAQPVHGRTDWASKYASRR
Kind of experiment: Kinome-wide inhibition profiling. Format: biochemical. The procedure:
as §1

The next experiment deals with T26, NEK11 (Homo sapiens, UniProt Q8NG66).
T26 construct: purchased Reaction Biology Corp
As to the kind of experiment: Kinome-wide inhibition profiling. The class given is biochemical. Here is the method: as §1

The target of another experiment is T27, TAOK1 (Homo sapiens, UniProt Q7L7X3).
T27 construct: purchased Reaction Biology Corp
As to the kind of experiment: Kinome-wide inhibition profiling. Format: biochemical. The procedure:
as §1

Another experiment addresses T28, MEK2 (Homo sapiens, UniProt P36507).
T28 construct: purchased Reaction Biology Corp
Kind of experiment: Kinome-wide inhibition profiling. The class given is biochemical. The procedure: as §1

Another experiment has as its target T29, PRKCI (Homo sapiens, UniProt P41743).
T29 construct: purchased Reaction Biology Corp
As to the kind of experiment: Kinome-wide inhibition profiling. The class given is biochemical. Here is the method:
as §1

For another experiment, the target named is T30, Haspin (Homo sapiens, UniProt Q8TF76).
T30 construct: purchased Reaction Biology Corp
As to the kind of experiment: Kinome-wide inhibition profiling. Format: biochemical. The procedure:
as §1

A further experiment has as its target T31, AKT3 (Homo sapiens, UniProt Q9Y243).
T31 construct: purchased Reaction Biology Corp
Kind of experiment: Kinome-wide inhibition profiling. The class given is biochemical. Here is the method: as §1

The target of a further experiment is T32, CSNK1G3 (Homo sapiens, UniProt Q9Y6M4).
T32 construct: purchased Reaction Biology Corp
As to the kind of experiment: Kinome-wide inhibition profiling. Format: biochemical. Here is the method: as §1

In a further experiment the target is T33, BTK (Homo sapiens, UniProt Q06187).
T33 construct: purchased Reaction Biology Corp
As to the kind of experiment: Kinome-wide inhibition profiling. Format: biochemical. Here is the method:
as §1

A further experiment has as its target T34, Src (Homo sapiens, UniProt P12931).
T34 construct: purchased Reaction Biology Corp
As to the kind of experiment: Kinome-wide inhibition profiling. The class given is biochemical. Here is the method: as §1

A further experiment deals with CDK4-cyclinD3. Set-up: method as in HMS LINCS database. Conditions: 10 μM, ref HMS LINCS database; cited from earlier work.
The target in a further experiment is T35, YSK1 (Homo sapiens, UniProt O00506).
T35 construct: purchased Reaction Biology Corp
Set-up: method as in HMS LINCS database. Conditions: 10 μM, ref HMS LINCS database; cited from earlier work.

A further experiment has as its system STK36. Details: method as in HMS LINCS database. Conditions: 10 μM, ref HMS LINCS database; cited from earlier work.

SMILES strings stand for the structures. A value given as a limit tells only on which side of the number the result lay.

T24 sequence (P54764 20-986): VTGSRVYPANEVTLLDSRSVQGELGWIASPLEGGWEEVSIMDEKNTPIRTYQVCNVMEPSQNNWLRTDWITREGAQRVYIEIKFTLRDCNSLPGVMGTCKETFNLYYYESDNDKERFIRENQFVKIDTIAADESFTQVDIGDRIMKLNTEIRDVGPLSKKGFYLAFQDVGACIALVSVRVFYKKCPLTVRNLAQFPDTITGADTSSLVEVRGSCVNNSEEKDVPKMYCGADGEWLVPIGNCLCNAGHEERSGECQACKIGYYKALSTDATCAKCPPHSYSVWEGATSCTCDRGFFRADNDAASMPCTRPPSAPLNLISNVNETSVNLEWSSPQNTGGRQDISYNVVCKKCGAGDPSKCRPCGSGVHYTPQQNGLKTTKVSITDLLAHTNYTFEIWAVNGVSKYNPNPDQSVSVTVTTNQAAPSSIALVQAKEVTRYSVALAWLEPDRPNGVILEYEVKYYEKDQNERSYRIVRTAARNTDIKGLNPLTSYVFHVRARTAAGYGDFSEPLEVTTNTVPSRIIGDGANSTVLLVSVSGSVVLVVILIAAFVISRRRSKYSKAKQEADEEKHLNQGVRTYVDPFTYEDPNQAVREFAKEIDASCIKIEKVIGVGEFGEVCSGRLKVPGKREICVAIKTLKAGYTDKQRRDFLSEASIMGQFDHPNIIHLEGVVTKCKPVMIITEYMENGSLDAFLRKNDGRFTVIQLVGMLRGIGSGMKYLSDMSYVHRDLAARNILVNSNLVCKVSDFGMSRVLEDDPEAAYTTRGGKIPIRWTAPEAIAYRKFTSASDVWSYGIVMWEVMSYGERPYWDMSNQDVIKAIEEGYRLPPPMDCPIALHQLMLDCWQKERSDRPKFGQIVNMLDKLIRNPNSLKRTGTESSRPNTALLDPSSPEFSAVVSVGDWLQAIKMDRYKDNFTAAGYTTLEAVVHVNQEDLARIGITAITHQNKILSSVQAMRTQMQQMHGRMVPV

For the compound `CCn1cnc2c(NCc3ccc(-c4ccccn4)nc3)nc(-c3ccc(N)nc3)nc21` [Compound 30d, N-([2,2′-Bipyridin]-5-ylmethyl)-2-(6-aminopyridin-3-yl)-9-ethyl-9H-purin-6-amine], the remaining activity (usually the signal under treatment as a percentage of the control signal) at 10 µM amounted to 96.8% on SRMS; 12.9% at PAK4; 21.2% at MELK; 41.6% at JNK1; 66.1% at RIPK2; 80.5% in experiment [1]. Besides, the remaining activity at 10 µM at MNK2 stood at 91.2%; on JAK1, 92.1%; at MARK3, 83.1%; at EPHA6 it was 3%; in experiment [2], 115%; at PHKg2, 56.9%. The remaining activity at 10 µM at CAMK1d turned out to be 58%; on CSNK1A1, 26.5%; at PKN3, 81.6%; at SBK1, 94.5%; at MARK1 it was 81.5%; on CAMK1a it was 34%. For the same compound, the remaining activity at 10 µM at PRKCH is 87.9%; on RSK3, 58.1%; at CDK6/cyclinD1, 24.2%; on HIPK2, 81.3%; on MAP3K8 it was 102%; at EPHA4 it was 3.6%. Moreover, the remaining activity at 10 µM was 39.6% at ICK; 94.3% on NEK11; 28.1% at TAOK1; 176% on MEK2; 86.1% at PRKCI; 79.4% on Haspin. Further, the remaining activity at 10 µM is 96.1% at AKT3, 24.4% on CSNK1G3, 103% on BTK and 60.1% at Src. For the same compound, the inhibition at 10 µM at EPHA6 and against EPHA4 was > 95% throughout.
Take `CCc1cnn2c(NCc3ccc[n+]([O-])c3)cc(N3CCCC[C@H]3CCO)nc12` [Dinaciclib]: the “% control” value with CDK4-cyclinD3 is 2.0%; at YSK1 it was 9.2%; in the experiment on STK36, 7.8%.
